Usually pIC50 stands for −log10 of the IC50, conventionally taken in molar units.

What all share (format): biochemical
For one test, the target named is T1, GST-Chk1 enzyme (Homo sapiens, UniProt O14757).
T1 sequence (O14757 1-476): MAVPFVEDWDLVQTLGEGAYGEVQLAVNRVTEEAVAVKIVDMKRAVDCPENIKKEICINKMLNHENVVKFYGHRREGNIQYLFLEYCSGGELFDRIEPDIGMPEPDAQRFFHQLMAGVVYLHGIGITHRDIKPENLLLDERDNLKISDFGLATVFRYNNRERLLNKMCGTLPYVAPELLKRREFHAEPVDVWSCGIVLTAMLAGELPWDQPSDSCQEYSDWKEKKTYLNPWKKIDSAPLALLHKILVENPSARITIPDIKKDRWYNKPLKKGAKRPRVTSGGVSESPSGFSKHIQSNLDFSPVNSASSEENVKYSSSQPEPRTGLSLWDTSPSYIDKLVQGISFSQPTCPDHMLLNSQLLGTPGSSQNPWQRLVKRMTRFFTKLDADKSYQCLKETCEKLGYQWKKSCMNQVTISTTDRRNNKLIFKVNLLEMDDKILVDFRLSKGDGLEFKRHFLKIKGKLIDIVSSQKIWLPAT
Put plainly: Chk1 kinase assay (33P Chktide phosphorylation). Conditions: 0.01 mM ATP, 40 minutes at 30° C.; read-out: CHK-1 IC50.

Another test has as its target T2, Akt1 (Homo sapiens, UniProt P31749).
T2 construct: purchased Upstate
Kind of test: Akt1 kinase assay (Histone H1 substrate). Conditions: 200 μM ATP, read-out: AKT-1 IC50.

The target in a further test is IGF-IR (Homo sapiens, UniProt P08069). Put plainly: Kinase selectivity screening (example 14).
Chain of IGF-IR (P08069 31-1367): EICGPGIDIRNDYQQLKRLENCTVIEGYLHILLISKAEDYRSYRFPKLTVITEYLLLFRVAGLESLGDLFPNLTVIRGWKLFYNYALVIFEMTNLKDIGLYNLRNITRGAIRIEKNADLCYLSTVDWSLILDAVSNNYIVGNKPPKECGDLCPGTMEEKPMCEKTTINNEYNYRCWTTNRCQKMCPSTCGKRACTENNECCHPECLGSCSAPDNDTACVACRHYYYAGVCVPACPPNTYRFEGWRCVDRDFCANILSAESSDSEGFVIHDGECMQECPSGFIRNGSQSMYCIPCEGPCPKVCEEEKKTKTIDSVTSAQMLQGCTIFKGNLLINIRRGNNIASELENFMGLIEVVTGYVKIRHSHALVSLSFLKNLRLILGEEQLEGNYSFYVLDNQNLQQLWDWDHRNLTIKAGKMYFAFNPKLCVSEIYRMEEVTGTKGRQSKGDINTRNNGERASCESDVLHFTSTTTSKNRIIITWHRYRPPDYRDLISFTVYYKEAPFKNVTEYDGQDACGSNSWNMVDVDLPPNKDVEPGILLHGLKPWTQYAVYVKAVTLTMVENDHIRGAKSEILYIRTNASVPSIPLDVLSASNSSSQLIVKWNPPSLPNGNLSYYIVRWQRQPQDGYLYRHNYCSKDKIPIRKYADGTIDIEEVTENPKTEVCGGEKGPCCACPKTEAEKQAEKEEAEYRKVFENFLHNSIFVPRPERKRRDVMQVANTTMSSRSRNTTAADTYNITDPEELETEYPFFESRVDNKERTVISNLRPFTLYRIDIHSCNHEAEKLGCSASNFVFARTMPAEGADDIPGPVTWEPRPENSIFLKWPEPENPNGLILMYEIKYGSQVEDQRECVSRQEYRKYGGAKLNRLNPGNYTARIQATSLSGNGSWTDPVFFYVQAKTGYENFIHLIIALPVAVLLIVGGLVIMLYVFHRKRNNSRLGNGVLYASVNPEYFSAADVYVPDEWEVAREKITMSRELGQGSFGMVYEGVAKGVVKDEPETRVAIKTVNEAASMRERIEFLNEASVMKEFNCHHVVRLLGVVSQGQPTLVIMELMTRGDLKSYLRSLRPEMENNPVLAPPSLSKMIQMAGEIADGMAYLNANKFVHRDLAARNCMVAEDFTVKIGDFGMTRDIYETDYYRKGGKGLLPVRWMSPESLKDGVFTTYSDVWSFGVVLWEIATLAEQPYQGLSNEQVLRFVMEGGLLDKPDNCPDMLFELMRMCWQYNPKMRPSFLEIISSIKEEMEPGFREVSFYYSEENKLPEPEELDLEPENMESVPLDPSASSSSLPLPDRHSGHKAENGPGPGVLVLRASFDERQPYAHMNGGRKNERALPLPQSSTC

pIC50: −log10 of the molar value. Bounds are passed on as bounds.

T2 sequence (P31749 whole entry, species assumed): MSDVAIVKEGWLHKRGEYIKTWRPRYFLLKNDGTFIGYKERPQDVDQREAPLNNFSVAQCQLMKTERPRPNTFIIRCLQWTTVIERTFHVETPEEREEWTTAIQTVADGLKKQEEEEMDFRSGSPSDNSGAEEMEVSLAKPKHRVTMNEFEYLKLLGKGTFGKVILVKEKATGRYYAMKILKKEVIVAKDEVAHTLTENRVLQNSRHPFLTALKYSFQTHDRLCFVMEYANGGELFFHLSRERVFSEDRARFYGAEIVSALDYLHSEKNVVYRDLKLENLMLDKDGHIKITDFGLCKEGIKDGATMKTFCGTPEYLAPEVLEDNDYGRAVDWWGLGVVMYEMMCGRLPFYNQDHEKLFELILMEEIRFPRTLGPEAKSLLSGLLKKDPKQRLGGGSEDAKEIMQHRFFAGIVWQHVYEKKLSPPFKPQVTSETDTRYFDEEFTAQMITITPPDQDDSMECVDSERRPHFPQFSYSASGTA

In the case of `Cc1[nH]nc(-c2nc3cc4cn[nH]c4cc3[nH]2)c1C(=O)NC1CCNCC1` [Example 14], the results for the negative logarithm of the IC50 (pIC50) at GST-Chk1 enzyme and on Akt1 were 8.22 and 4.57, respectively. Besides, the “selectivity versus IGF-IR” value at IGF-IR is listed as over 20 fold.

The values above are taken from US20090131470A1, “PYRAZOLE-SUBSTITUTED BENZIMIDAZOLE DERIVATIVES FOR USE IN THE TREATMENT OF CANCER AND AUTOIMMUNE DISORDERS” (priority 2005, published 2009).
